US12484574B2, “Agent for promoting undifferentiation and cryoprotective agent using aprotic zwitterion” (JAPAN SCIENCE AND TECHNOLOGY AGENCY, priority 2019, dated 2025)
Marks after values point to notes of the source that are not given here.

Columns and labels:
[1] = Glass transition temperature and heat quantity by differential scanning calorimetry (DSC); type: physicochemical; settings: 10 wt % in purified water, cooling −1° C./min, heating 5° C./min
Experimental: The glass transition temperature and the heat quantity were determined by differential scanning calorimetry (DSC). The measurement was performed with a cooling rate set to −1° C./min an d a heating rate set to 5° C./min.

[2] = tested on: Human renal cell; assay: Cell freezing experiment 4 (slow freezing), viable cell count as ratio to OE2imC3C; type: cell-based; settings: −80° C., −1° C./min
Experimental: (§1) As for the cryopreservation solution, the aprotic zwitterion of each example was dissolved by the addition of purified water to prepare test solutions containing 5% by weight and 10% by weight of the aprotic zwitterion.
(§2) The cells to be frozen were centrifugally recovered by trypsin treatment and diluted with Dulbecco's modified Eagle medium (DMEM), and each cell concentration was measured. The types and cell concentrations of the cells are as follows. • Mouse skin fibroblasts 5.0×10^5 cells/100 μl • Human renal fat cells 5.0×10^5 cells/100 μl
(§3) Subsequently, the cells of each type were dispensed at 1 ml/tube to 1.5 ml tubes, centrifuged, suspended in 100 μl each of the cryopreservation solutions described above, and frozen at a cooling temperature of −80° C. at a cooling rate of −1° C./min using a cell freezing container Mr. Frosty®.
(§4) 1 ml of a medium was added to the cryopreservation vial for thawing, and a supernatant was removed by centrifugation. Subsequently, the cells obtained by centrifugation were resuspended in a medium, followed by the measurement of a viable cell count. The results are indicated by a ratio to the viable cell count of OE2imC3C.

[3] = tested on: Mouse skin fibroblast; assay: as above; type: cell-based; settings: −80° C., −1° C./min
Experimental: as §1, §2, §3, §4

[4] = tested on: human fibroblasts; assay: Influence on cell cycle (Click-iT Plus EdU cell proliferation assay); type: cell-based; settings: 2% addition; compared with no addition; FIG. 11
Experimental: The cells used were human fibroblasts.
The test groups were 1% addition groups and 2% addition groups of DMSO and HLS (OE2imC3C) vs. a control.
Cell cycle analysis was conducted using Click-iT® Plus EdU cell proliferation assay (Thermo Fisher Scientific Inc.) containing 5-ethynyl-2′-deoxyuridine (EdU) according to the manufacturer's protocol. The cells were incubated in 10 μM EdU for 1 hour, treated with trypsin, then fixed in 4% PFA, and labeled with Alexa Fluor 647 picolyl azide. The cells were stained with 4′,6-diamidino-2-phenylindole (DAPI) and analyzed with BD FACSAria™ III (BD Biosciences).

[5] = tested on: Wild-type zebrafish AB*; assay: Influence on development of zebrafish; type: in vivo; settings: for Survival rate: fertilized eggs cultured 1.5 to 24 hours
Experimental: All experiments were conducted based on a protocol approved by the animal experiment committee of Kanazawa University. Wild-type zebrafish AB* was raised at 28.5° C. with 14-hour light/10-hour dark cycles in a circulating water system. The medium used was E3 medium (5 mM NaCl, 0.17 mM KCl, 0.33 mM CaCl2, 0.33 mM MgSO4). The medium was supplemented with 1%, 2%, 5% or 10% DMSO or HLS (OE2imC3C). For each test group, eggs were fertilized and then cultured for 1.5 to 24 hours. The embryos thus cultured were washed with E3 medium twice and treated with 1-phenyl-2-thiourea (FUJIFILM Wako Pure Chemical Corp.) in order to prevent pigmentation. The embryos were stained with 0.6 mg/mL o-dianisidine (Tokyo Chemical Industry Co., Ltd.) for 15 minutes and fixed in 4% paraformaldehyde (FUJIFILM Wako Pure Chemical Corp.). The embryos were washed with phosphate-buffered saline containing 0.1% Tween (Sigma-Aldrich Co. LLC) twice. The survival rate was similar between DMSO and HLS (OE2imC3C) up to the 2% addition groups, whereas the survival rate differed largely therebetween in the 5% addition groups.

Heat quantity [1] [J/g] | Tg [1] [°C] | Structure (SMILES) | further results
-182.17 | −85.74 | C=Cn1cc[n+](CCCC(=O)[O-])c1 [VimC3C] | 
-188.37 | −85 | C=CCn1cc[n+](CCCC(=O)[O-])c1 [AimC3C] | 
-183.73 | −74.59 | CCCCn1cc[n+](CCCCCC(=O)[O-])c1 [Example C4imC5C] | 
-199.61 | −95.22 | Cn1cc[n+](CCCC(=O)[O-])c1 [Example C1imC3C] | 
-187.42 | −84.05 | CCCCCCCCn1cc[n+](CCCC(=O)[O-])c1 [Example C8imC3C] | 
-169.61 | −84.51 | C[n+]1ccn(CCCCCC(=O)[O-])c1 [Example C1imC5C] | viable cell count, ratio to the viable cell count of OE2imC3C ([2]; 5 wt % in purified water): 1.94; viable cell count, ratio to the viable cell count of OE2imC3C ([2]; 10 wt % in purified water): 0.72; viable cell count, ratio to the viable cell count of OE2imC3C ([3]; 5 wt % in purified water): 0.82; viable cell count, ratio to the viable cell count of OE2imC3C ([3]; 10 wt % in purified water): 1.09
-198.66 | −75.3 | CCCCn1cc[n+](CCCC(=O)[O-])c1 [Example C4imC3C] | 
-190.82 | −83.34 | COCCOCCn1cc[n+](CCCCCC(=O)[O-])c1 [OE2imC5C] | 
-188.49 | −86.07 | COCCn1cc[n+](CCCC(=O)[O-])c1 [OE1imC3C] | 

The next lines start with the compound.

Structure (SMILES) | Heat quantity [1] [J/g] | Tg [1] [°C] | further results
C[N+]1(CCCC(=O)[O-])CCCC1 [PyrrC3C] | -188.06 | −91.85 | 
CCCCCCCCCCCCCC[N+](C)(C)CCCC(=O)[O-] [N1,1,14C3C] | -182.67 | −74.96 | viable cell count, ratio to the viable cell count of OE2imC3C ([2]; 5 wt % in purified water): 0.59; viable cell count, ratio to the viable cell count of OE2imC3C ([2]; 10 wt % in purified water): 0.56; viable cell count, ratio to the viable cell count of OE2imC3C ([3]; 5 wt % in purified water): 0.58; viable cell count, ratio to the viable cell count of OE2imC3C ([3]; 10 wt % in purified water): 0.77
C[S+](C)[O-] [DMSO, dimethyl sulfoxide] |  |  | influence on cell cycle (G0/G1 phase, S phase) [4]: prolonged the G0/G1 phase and drastically shortened the S phase; development of surviving fertilized eggs (abnormality) ([5]; 5 % v/v in E3 medium): did not normally develop; Survival rate ([5]; Concentration 1 % (v/v for DMSO, w/v for HLS) in E3 medium): 27/27; Survival rate ([5]; Concentration 2 % (v/v for DMSO, w/v for HLS) in E3 medium): 27/27; Survival rate ([5]; Concentration 5 % (v/v for DMSO, w/v for HLS) in E3 medium): 4/27*; Survival rate ([5]; Concentration 10 % (v/v for DMSO, w/v for HLS) in E3 medium): 0/27
COCCOCCn1cc[n+](CCCS(=O)(=O)[O-])c1 [OE2imC3S] | -190.84 | −85.48 | 
O=C([O-])CCC[n+]1ccccc1 [PyC3C] | -182.59 | −90.35 | 
CCCCCCCC[n+]1ccn(CCCS(=O)(=O)[O-])c1 [Example C8imC3S] |  |  | viable cell count, ratio to the viable cell count of OE2imC3C ([2]; 5 wt % in purified water): 0.00; viable cell count, ratio to the viable cell count of OE2imC3C ([2]; 10 wt % in purified water): 0.33; viable cell count, ratio to the viable cell count of OE2imC3C ([3]; 5 wt % in purified water): 0.00; viable cell count, ratio to the viable cell count of OE2imC3C ([3]; 10 wt % in purified water): 0.04
C=CCn1cc[n+](CCCCS(=O)(=O)[O-])c1 [AimC4S] | -210.34 | −86.07 | 
C=CCn1cc[n+](CCCS(=O)(=O)[O-])c1 [AimC3S] | -213.16 | −85.76 | 
C=Cn1cc[n+](CCCS(=O)(=O)[O-])c1 [VimC3S] | -170.72 | −81.06 | 
Cn1cc[n+](CCCS(=O)(=O)[O-])c1 [Example C1imC3S] | -173.36 | −88.88 | 
